According to patent US6361792B1, “Lipid dispersions and methods of use” (Alliance Pharmaceutical Corp., priority 1987, dated 2002):
“Also recorded” adds a separate entry of the source.

Experiments:
anesthetized swine = test: Prophylaxis of the acute hemodynamic response to intravenous fluorocarbon emulsion with cyclooxygenase inhibitors
Source text: All animals were fully anesthetized (ketamine-sodium pentobarbital), placed on positive pressure ventilation, and instrumented for determination of pulmonary artery pressure, cardiac output, ECG (electrocardiogram), right atrial pressure, and whole blood samples collections. Changes in skin color were also quantified using a relative color scale ranging from normal (light pink) to darker shades of pink and purple. Continuous electrocardiographs and oscillographic recordings of blood pressures were made. At least 30 minutes of baseline data were collected before intravascular administration of the substances. After control recordings, infusion of the pigs was carried out with 3 ml/kg body weight of either fluorocarbon emulsion as Imagent®BP (90% or 100% perfluorooctylbromide) or saline at a rate of 2 ml/min i.v. over 15 minutes.
A series of experiments was conducted to evaluate the effects of prophylactic treatment with cyclooxygenase inhibitors on the acute hemodynamic response to intravenous injection of 90% Imagent®BP in anesthetized swine. […] Animals receiving prophylaxis were administered indomethacin (0.5 mg/kg p.o.) prior to administration of the test article. Test swine were treated prophylactically with indomethacin, ibuprofen and aspirin.

tumor-bearing animals = conditions: cited from earlier work
conscious swine = test: Delayed febrile response (core body temperature) to intravenous lipid dispersion in conscious swine, with or without prophylaxis; assay type: in vivo; conditions: for effect on febrile reaction to fluorocarbon emulsion: prophylactic treatment, dose not given
Method: Swine were instrumented 48 hours prior to study for determination of core body temperature using a catheter-tipped thermistor, and for intravenous injection using an axillary vein catheter. On the day of study, core body temperature was determined at baseline and at regular intervals for 6 h after intravenous injection of Imagent®BP.

thromboxane synthetase = molecular target: T1, thromboxane synthetase (Rattus norvegicus, UniProt P49430); conditions: in the rat; cited from earlier work
T1 sequence (P49430 1-533): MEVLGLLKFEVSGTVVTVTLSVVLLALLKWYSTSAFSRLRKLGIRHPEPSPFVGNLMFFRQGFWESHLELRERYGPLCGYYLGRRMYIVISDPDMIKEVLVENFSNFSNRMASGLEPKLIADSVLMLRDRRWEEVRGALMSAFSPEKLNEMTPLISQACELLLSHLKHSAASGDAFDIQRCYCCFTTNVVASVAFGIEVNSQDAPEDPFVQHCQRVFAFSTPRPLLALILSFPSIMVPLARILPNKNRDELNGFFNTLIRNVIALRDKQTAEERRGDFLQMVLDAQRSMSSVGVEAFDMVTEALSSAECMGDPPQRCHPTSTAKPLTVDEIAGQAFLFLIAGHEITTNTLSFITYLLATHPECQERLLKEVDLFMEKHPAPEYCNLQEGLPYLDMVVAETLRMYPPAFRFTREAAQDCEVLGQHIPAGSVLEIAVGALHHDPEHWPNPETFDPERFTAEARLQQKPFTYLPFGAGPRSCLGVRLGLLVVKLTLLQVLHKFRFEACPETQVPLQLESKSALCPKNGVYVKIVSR

Molecule: CC(C)Cc1ccc(C(C)C(=O)O)cc1 (racemic) [ibuprofen, (±)-2-(p-isobutylphenyl)propionic acid]
- effect on acute hemodynamic response (mPAP) to Imagent BP (anesthetized swine; oral 20 mg/kg 1 h before Imagent BP 3 ml/kg i.v., 20 mg/kg): prevent the acute hemodynamic response
- effect on acute hemodynamic response (mPAP) to Imagent BP (anesthetized swine; oral 20 mg/kg 1 h before Imagent BP 3 ml/kg i.v., listed as Ibuprofen, 20 mg/kg): significantly attenuated the mPAP responses
- symptoms in reaction to intravenous fluorocarbon emulsion (tumor-bearing animals): alleviated
- effect on febrile response to Imagent BP (conscious swine; oral 20 mg/kg 1 h before injection, 6 h time course): significantly suppressed

Molecule: Cn1ccnc1 [1-methyl-imidazole]
- inhibition of thromboxane synthetase (thromboxane synthetase): act effectively to inhibit thromboxane synthetase

Molecule: O=C(O)CCCCCc1cccc2cncn12 [CGS 13080, imidazo(1,5-pyridine-5-hexanoic acid)]
- inhibition of thromboxane synthetase (thromboxane synthetase): act effectively to inhibit thromboxane synthetase

Molecule: O=C(O)CCCCCCCn1ccnc1 [N(7-carboxyheptyl)imidazole]
- inhibition of thromboxane synthetase (thromboxane synthetase): act effectively to inhibit thromboxane synthetase

Molecule: CC(=O)Nc1ccc(O)cc1 [acetaminophen]
- effect on febrile reaction to fluorocarbon emulsion (conscious swine): not prevented

Molecule: CC(=O)Oc1ccccc1C(=O)O [aspirin, acetylsalicylic acid]
- effect on increased mPAP response to Fluosol (20% fluorocarbon emulsion) (anesthetized swine; aspirin pretreatment vs Fluosol alone, FIG. 2): decreased response
- blood cell counts (erythrocytes, leukocytes, platelets) after Imagent BP (anesthetized swine; aspirin prophylaxis, oral 5 mg/kg 1 h before): nearly identical to that seen with the saline control
- effect on acute hemodynamic response (mPAP) to Imagent BP (anesthetized swine; oral 5 mg/kg 1 h before Imagent BP (90%) 3 ml/kg i.v., 5 mg/kg): prevent the acute hemodynamic response; also recorded: appeared to completely block any increases in mPAP
- effect on febrile reaction to fluorocarbon emulsion (conscious swine): not prevented

Molecule: O=C(O)c1ccc(OCCn2ccnc2)cc1 [dazoxiben, 4-(2-(1 H-imidazol-1 yl)ethoxy)benzoic acid]
- inhibition of thromboxane synthetase (thromboxane synthetase): act effectively to inhibit thromboxane synthetase

Molecule: COc1ccc2c(c1)c(CC(=O)O)c(C)n2C(=O)c1ccc(Cl)cc1 [indomethacin, 1-(pchlorobenzoyl)-5-methoxy-2-methylindole-3-acetic acid]
- effect on acute hemodynamic response (mPAP) to Imagent BP (anesthetized swine; indomethacin i.v. bolus 10 mg/kg then 6 mg/kg/hr, Imagent BP 90% 3 ml/kg i.v.): prevent the acute hemodynamic response; also recorded: virtually prevented all of the hemodynamic reactions

Molecule: COc1ccc2cc([C@H](C)C(=O)O)ccc2c1 [naproxen]
- effect on febrile response to Imagent BP (conscious swine; oral 5 mg/kg 1 h before injection (naproxen), 5 mg/kg): attenuated febrile response

Molecule: methylprednisone
- effect on febrile response to Imagent BP (conscious swine; oral 5 mg/kg 12 h and 2 h before injection (methylprednisone), 5 mg/kg): attenuated febrile response
- effect on febrile response to Imagent BP (conscious swine; oral 5 mg/kg 12 h and 2 h before injection (methylprednisone), listed as Methylprednisone, 5 mg/kg): attenuates the response
